Test results published in patent publication US20190105389A1, “ADJUVANT SYSTEM FOR ORAL VACCINE ADMINISTRATION” (Vaxform LLC, priority 2012, published 2019).

Assays:
[1] = Linkage (adsorption) of CTL receptor agonist to aluminum adjuvant (FIG. 2); type: physicochemical; details: aluminum oxyhydroxide
Source text: However, monosaccharides can be modified by a chemical group including but not limited to fluoride, phosphate, sulfate, or carbonate group which permits a ligand exchange linkage of the molecule to the aluminum-containing adjuvant. Method for modifying saccharides by addition of fluoride, phosphate, sulfate, or carbonate groups is well known in the art (Cantos, et al. Biochem. J. (1993) 288: 155-160; Carbohydrate Chemistry, Royal Society of Chemistry, Ed. RD Guthrie (1968)). This is illustrated in FIG. 2 utilizing mannose as the CTL receptor agonist and aluminum oxyhydroxide. […] However, addition of a phosphate group at the 1 position of mannose (M1P) results in approximately 100% linkage of the CTL agonist to the aluminum adjuvant.
Another method to the increased avidity of the saccharide for the aluminum adjuvant particle is polymerization. For instance the avidity of the saccharide for the aluminum adjuvant particle may be increased by increasing the size of the saccharide by polymerization to produce a polysaccharide. The increase avidity for the aluminum adjuvant is due to the larger number of interactions of a polysaccharide as compared to a monosaccharide to allow for the stable linkage of the polysaccharide agonist to the aluminum adjuvant particle. […]

[2] = Stability of CTL agonist linkage to aluminum particle on exposure to phosphate (FIG. 3A, 3B); type: physicochemical; details: exposed to 50 mM phosphate pH 7.4 for 30 minutes in the absence of antigen
Source text: It is important to maintain the stability of the CTL agonist linkage to the aluminum particle upon exposure to body fluid following administration. Components of interstitial fluid such as phosphate, citrate, and protein have the potential to remove the linkage of the CTL agonist with aluminum-containing adjuvants. The resulting soluble CTL agonist may adversely impact the immune response. FIG. 3A illustrates that M1P as well as mannan maintain approximately 100% linkage with aluminum oxyhydroxide when exposed to 50 mM phosphate pH 7.4 for 30 minutes in the absence of antigen.

Row | Compound | Linkage of the CTL agonist to the aluminum adjuvant [1] | Linkage with aluminum oxyhydroxide maintained [2]
1 | O=P(O)(O)OC1O[C@H](CO)[C@@H](O)[C@H](O)[C@@H]1O (stereo partly shown) [Formulation M1P, mannose-1-phosphate] | approximately 100% | approximately 100%
2 | mannan | approximately 100% | approximately 100%
